The text below walks through data of patent publication US8163793B2, “Proline derivatives” (Hoffman-La Roche Inc., priority 2009, dated 2012).

For one experiment, the target named is Cat L (UniProt P07711). The experiment can be described thus: Cathepsin enzyme inhibition assay (fluorogenic peptide substrate Z-Val-Val-Arg-AMC), Cathepsin L. Type of experiment: biochemical, human and mouse. Particulars: enzyme 1 nM, substrate 20 μM, pH 6.5; read-out: CatL IC50. The procedure, abridged:
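Fluorogenic cleavage of Z-Val-Val-Arg-AMC (20 μM) by 1 nM Cat L was monitored at ex 360/em 465 nm for 20 min, the linear phase. The buffer was 100 mM potassium phosphate pH 6.5 with 5 mM EDTA and DTT. IC50 values were derived by standard methods, in μM.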

The target of a further experiment is Cathepsin S (UniProt P25774). The experiment can be described thus: Cathepsin enzyme inhibition assay (fluorogenic peptide substrate Z-Val-Val-Arg-AMC), Cathepsin S. The following applies: enzyme 1 nM, substrate 20 μM, pH 6.5; read-out: CatS IC50. It is filed as biochemical, human and mouse. The procedure, abridged: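 Compounds were combined with 1 nM human or mouse enzyme, and substrate then started the reaction. The buffer was potassium phosphate (100 mM, pH 6.5) containing EDTA-Na 5 mM, Triton X-100 0.001% and […] 5 mM.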

The term IC50 denotes the midpoint of a concentration-inhibition curve. Take `N#CC1(NC(=O)[C@@H]2C[C@@H](S(=O)(=O)c3ccc(F)cc3F)CN2C(=O)C2(c3ccc(Cl)cc3)CC2)CC1` [Example 235, (2S,4R)-1-[1-(4-Chloro-phenyl)-cyclopropanecarbonyl]-4-(2,4-difluoro-benzenesulfonyl)-pyrrolidine-2-carboxylic acid (1-cyano-cyclopropyl)-amide]: the IC50 on Cat L worked out at 550 nM; on Cathepsin S, 0.95 nM.
For `CC(C)CS(=O)(=O)[C@@H]1C[C@@H](C(=O)NC2(C#N)CC2)N(C(=O)C2(c3ccc(Cl)cc3)CC2)C1` [Example 236, (2S,4R)-1-[1-(4-Chloro-phenyl)-cyclopropanecarbonyl]-4-(2-methyl-propane-1-sulfonyl)-pyrrolidine-2-carboxylic acid (1-cyano-cyclopropyl)-amide] the same measures were not below 25000 nM and 240 nM.
With `N#CC1(NC(=O)[C@@H]2C[C@@H](S(=O)(=O)c3ccc(OCC(F)(F)F)cc3C(F)(F)F)CN2C(=O)C2(C(F)(F)F)CC2)CC1` [Example 237, (2S,4R)-4-[4-(2,2,2-Trifluoro-ethoxy)-2-trifluoromethyl-benzenesulfonyl]-1-(1-trifluoromethyl-cyclopropanecarbonyl)-pyrrolidine-2-carboxylic acid (1-cyano-cyclopropyl)-amide], the IC50 was not below 25000 nM on Cat L and 0.168 nM at Cathepsin S.
On to `Cn1cc(-c2ccc(S(=O)(=O)[C@@H]3C[C@@H](C(=O)NC4(C#N)CC4)N(C(=O)C4(C(F)(F)F)CC4)C3)c(C(F)(F)F)c2)cn1` [Example 238, (2S,4R)-4-[4-(1-Methyl-1H-pyrazol-4-yl)-2-trifluoromethyl-benzenesulfonyl]-1-(1-trifluoromethyl-cyclopropanecarbonyl)-pyrrolidine-2-carboxylic acid (1-cyano-cyclopropyl)-amide], for which the IC50 is 20800 nM on Cat L and 0.05 nM at Cathepsin S.
For the compound `N#CC1(NC(=O)[C@@H]2C[C@@H](S(=O)(=O)c3ccc(OCC(F)(F)F)cc3Cl)CN2C(=O)C2(c3ccc(Cl)c(Cl)c3)CC2)CC1` [Example 239, (2S,4R)-4-[2-Chloro-4-(2,2,2-trifluoro-ethoxy)-benzenesulfonyl]-1-[1-(3,4-dichloro-phenyl)-cyclopropanecarbonyl]-pyrrolidine-2-carboxylic acid (1-cyano-cyclopropyl)-amide], the results for the IC50 at Cat L and on Cathepsin S were 84 nM and 0.08 nM, respectively.
Regarding `N#CC1(NC(=O)[C@@H]2C[C@@H](S(=O)(=O)c3ccc(OCC(F)(F)F)cc3Cl)CN2C(=O)C2(c3ccccc3)CC2)CC1` [Example 240, (2S,4R)-4-[2-Chloro-4-(2,2,2-trifluoro-ethoxy)-benzenesulfonyl]-1-(1-phenyl-cyclopropanecarbonyl)-pyrrolidine-2-carboxylic acid (1-cyano-cyclopropyl)-amide], the IC50 on Cat L was determined as 590 nM; at Cathepsin S, 0.09 nM.
For `N#CC1(NC(=O)[C@@H]2C[C@@H](S(=O)(=O)c3ccc(OCC(F)(F)F)cc3Cl)CN2C(=O)C2CC2(F)F)CC1` (stereo partly drawn) [Example 241, (2S,4R)-4-[2-Chloro-4-(2,2,2-trifluoro-ethoxy)-benzenesulfonyl]-1-(2,2-difluoro-cyclopropanecarbonyl)-pyrrolidine-2-carboxylic acid (1-cyano-cyclopropyl)-amide] the same measures were 31800 nM and 0.33 nM.
As to `CC(C)(C)OC(=O)NC1(C(=O)N2C[C@H](S(=O)(=O)c3ccc(OCC(F)(F)F)cc3Cl)C[C@H]2C(=O)NC2(C#N)CC2)CC1` [Example 242, {1-[(2S,4R)-4-[2-Chloro-4-(2,2,2-trifluoro-ethoxy)-benzenesulfonyl]-2-(1-cyano-cyclopropylcarbamoyl)-pyrrolidine-1-carbonyl]-cyclopropyl}-carbamic Acid Tert-butyl ester], the IC50 on Cat L came to 1430 nM; at Cathepsin S, 4.75 nM.
